Assay results as given in US20090123389A1, “Methods for modulating Th17 cell development in the treatment and prevention of cellulite” (priority 2007, published 2009).

Tests used:
CD4+ CD25− T cells = experiment: Quantitative real-time PCR of AAR-associated genes in activated T cells; format: cell-based, mouse; details: 10 nM HF, within 4 hours of T cell activation
Experimental: FIG. 12C is a graph depicting the results of quantitative real-time PCR performed on cDNA generated from resting naïve T cells (TN) or T cells activated for 4 hours in the presence of 10 nM MAZ1310 or 10 nM HF. Asns, Gpt2 or eIF4Ebp1 mRNA expression was normalized to Hprt levels and data are presented as mean values±SD in duplicate samples.
Quantitative real-time PCR: T cells were activated as described above, collected at the indicated times and pellets were flash-frozen in liquid nitrogen. Total RNA was obtained by RNeasy (Quiagen, Valencia, Calif.) column purification per manufacturers instructions. RORγt expression was determined after reverse transcription using the message sensor kit (Ambion, Austin, Tex.) per manufacturers instructions and taqman primers and probe as described elsewhere (I. Ivanov, et al., Cell 126, 1121, 2006). Sybrgreen quantitative real-time PCR was performed on T cell RNA samples following reverse transcription via SuperScript II first-strand cDNA synthesis kit (Invitrogen, Carlsbad, Calif.). All PCR data was collected on an iCycler thermal cycler (Biorad, Hercules, Calif.). Primer sequences used for detecting stress response genes are listed below.

[1] = test system: amino acid response (AAR) pathway; experiment: eIF2α phosphorylation and ATF4 protein in T cells (immunoblot); format: cell-based, mouse
Experimental: Whole cell lysates were prepared 4 hours-post TCR activation and immunoblotting was performed with the indicated antibodies. ATF4 protein is indicated by arrowhead. NS—non-specific band.
FIG. 12E is an illustration depicting immunoblot analysis of purified CD4^+ CD25^− T cells activated through the TCR for the indicated times without exogenous cytokines in the presence of either 10 nM MAZ1310 or 10 nM HF as indicated. Whole cells lysates were prepared during the timecourse and immunoblotting was performed.
Cultures were further supplemented with either 10 nM MAZ1310 or 10 nM HF as indicated. Whole cell lysates were generated 4 hours after activation and immunoblotting was performed. Microarray data were generated from triplicate samples and all other data are representative of at least 2 similar experiments.
Western blotting: Whole cell lysates were generated from T cells activated for the indicated times. For STAT3 and Smad2/3 western blots cells were harvested, washed in PBS and lysed in 50 mM Tris, pH 7.4, 0.1% SDS, 1% Triton-×100, 140 mM NaCl, 1 mM EDTA, 1 mM EGTA supplemented with protease inhibitors tablets (Roche—Germany), 1 mM NaF and 1 mM Na3VO4. For eIF2α and ATF4 western blots, cells were harvested as above and lysed in 50 mM Tris, pH 7.4, 2% SDS, 20% glycerol and 2 mM EDTA supplemented with protease and phosphatase inhibitors as above. All lysates were cleared via centrifugation and 15-30 μg of protein was resolved by SDS-PAGE. Protein was transferred to nitrocellulose membranes, blocked and blotted using specific antibodies. Antibodies used for western blot analysis were anti-phospho-Smad2, anti-STAT3 (pY705), anti-STAT3, anti-eIF2α^pS51, anti-eIF2α, anti-GCN2^pT898, anti-GCN2 (all from cell signaling technology, Danvers, Mass.). Anti-ATF4/CREB2 and anti-β-actin were purchased from Santa Cruz biotechnology (Santa Cruz, Calif.). HRP-conjugated secondary antibodies were all purchased from Sigma, with the exception of HRP-conjugated anti-armenian hamster antibody (Jackson Immunoresearch—West Grove, Pa.).

splenocytes = experiment: In vivo activation of the AAR pathway in splenocytes of treated mice; design: species or system C57B/6 mice; details: 2.5 μg HF i.p., 6 hours post injection
Experimental: FIG. 20A is a graph depicting splenocytes from control- and HF-treated mice. C57B/6 mice were injected i.p. with vehicle (DMSO) or 2.5 μg HF. Spleens were harvested 6 hours post injection, red blood cells were lysed and total splenocytes were counted. Data are presented as mean cell counts±SD from 2 mice per group.
FIG. 20C is a graph depicting eIF2α expression in control- and HF-treated mice. Splenocytes from mice injected with DMSO or HF as above were harvested 6 hours post injection. Red blood cells were lysed and immunoblotting was performed on whole cell extracts for phosphorylated or total eIF2α as indicated.
FIG. 20D is a graph depicting the results of quantitative real-time PCR (qPCR) experiments performed for AAR-associated gene expression (Asns, Gpt2, eIF4Ebp1) using cDNA generated from splenocytes of mice injected with DMSO or HF as above. Expression of AAR-associated genes were normalized to Hprt levels and data are presented as mean relative expression from duplicate samples±SD.

[2] = rabbit, in vivo; cited from earlier work

Question: Which results are given for `O=C(CC1NCCCC1O)Cn1cnc2cc(Br)c(Cl)cc2c1=O` (racemic) [HF, 7-bromo-6-chloro-3-[3-(3-hydroxy-2-piperidinyl)-2-oxopropyl]-4(3H)-quinazolinone]?
Answer: AAR-associated genes (Asns, Gpt2, eIF4Ebp1) mRNA by qPCR (CD4+ CD25− T cells): induced; time at which eIF2α phosphorylation reached maximum levels ([1]; 10 nM HF): ≤ 2 h; time until which ATF4 protein continued to accumulate ([1]; 10 nM HF): 4 h; eIF2α phosphorylation in resting naïve T cells and T cells in Th17, ThN, Th1, Th2 and iTreg conditions ([1]; 10 nM HF, 4 hours): induced eIF2α phosphorylation; induction of ATF4 expression by T cell state ([1]; 10 nM HF, 4 hours): in all differentiated T cells but not in naïve T cells; HF concentration at which eIF2α phosphorylation plateaued ([1]; 4 hours-post TCR activation): 5 to 10 nM; HF concentration inducing detectable eIF2α phosphorylation ([1]; 4 hours-post TCR activation): 2.5 nM; HF concentration with highest ATF4 expression levels ([1]; 4 hours-post TCR activation): 5 to 10 nM; HF concentration with reduced ATF4 expression ([1]; 4 hours-post TCR activation): 20 to 40 nM; eIF2α phosphorylation and AAR-associated gene expression in splenocytes of treated mice (splenocytes): rapidly activates; HF in serum after topical treatment of rabbits [2]: undetectable in serum
